Data published in patent US12703728B2, “Interleukin 29 mutant protein” (priority 2020, dated 2026).
Changes are numbered by the printed parent chain. Where two headings read alike, the source gives them in different places.

Tests used:
[1] = tested on: respiratory syncytial virus; test: In vitro efficacy on RSV-infected human bronchial epithelial cells (HBEC); type: cell-based; conditions: for Average inhibition rate (%): HBEC, RSV
Method: RSV with a titer of 100, TCID50 (half of the infective dose of tissue culture) was added to each of the activity test wells, culturing the cells in 37° C. and 5% CO2 incubator for 3 days, then RSV RNA was extracted from the cells by using the RNA Extraction Kit (Catlog: 74181, Qiagen), and quantified by RT-qPCR.

Vero cells = test: Toxic effects on Vero cells by CCK-8 assay; conditions: 50 μmol/L and below, 48 h, CCK-8
[2] = Toxic effects on Vero cells by CCK-8 assay; conditions: African green monkey, Vero cells
novel coronavirus = test: organism not typed; type: cell-based, African green monkey
HEK293-ISRE-Luc cells = type: cell-based; conditions: for EC50: HEK293-ISRE-Luc reporter gene method; for EC50/biological activity as compared with IL29 control (in words): reporter gene method
From the text: The reporter gene method refers to ligating the promoter of interferon-stimulated response element (ISRE) to alkaline phosphatase cDNA, and transfecting them into HEK293 cells, and evaluating IL29 activity by measuring alkaline phosphatase in supernatant of HEK293 cells after IL29 stimulation (LaFleur D W, Nardelli B, Tsareva T Et al. Interferon-kappa, a novel type I interferon expressed in human keratinocytes. [J]. J. Biol. Chem., 2001, 276:39765-71).
HEK293-ISRE-Luc cells (purchased from National institutes for Food and Drug Control) were allowed to grow adherently in complete culture medium. The cells were passaged at a ratio of 1:4, 2-3 times per week, growing in complete culture medium. The cultured cells were taken to discard the culture medium, and the cells were washed once with PBS and then digested and collected; and the cell suspension containing 3.5×10^5 to 4.5×10^5 cells per 1 ml was prepared with assay culture medium (BIBCO).

[3] = Stability of IL29 mutants at 50° C.; type: physicochemical; conditions: 50° C./75% relative humidity; for Reduction on Day 14 as compared with Point 0 (%): reversed-phase HPLC main peak
Method: (§1) The mobile phase A (acetonitrile:water:trifluoroacetic acid, in the volume ratio of 20:80:0.1) and the mobile phase B (acetonitrile:water:isopropanol:trifluoroacetic acid, in the volume ratio of 70:20:10:0.1) were prepared; and a chromatographic column (XBridge BEH C18 Column, 130A, 5 μm, 4.6 mm*100 mm) was used to analyze each test sample of proteins. The analytical conditions were as follows: flow rate 1.0 ml/min, acquisition time: 65 min, acquisition wavelength 214 nm, column temperature 45° C., and elution gradient as shown in Table 1 below.
Two injections of stock solution of a test sample were loaded in parallel, and the loading volume was set as15 μg-20 μg according to the sample concentration; finally, the purity of the main peak of the test sample was calculated by integrating according to the area normalization method.
The details are shown in Table 5, while the purity values at day 0 and 14 in Table 5 were used to make contrast chromatogram, as shown in FIGS. 3-10.

[4] = Stability of IL29 mutants at 50° C.; type: physicochemical; conditions: 50° C./75% relative humidity, reporter gene method
[5] = type: physicochemical; conditions: 25° C./60% relative humidity/5000 lux
Method: as §1
The mobile phase A (25 mmol/L phosphate buffer, pH 7.0) and mobile phase B (25 mmol/L phosphate buffer, 0.5 mol/L sodium chloride, pH 6.7) were prepared, and a chromatographic column (Thermo ProPac WCX-10 4.0*250 mm) was used to analyze each test sample of proteins. The analytical conditions were as follows: flow rate 0.8 ml/min, acquisition time: 55 min, acquisition wavelength 214 nm, column temperature 25° C., and elution gradient as shown in Table 2 below.
The stability of IL29 mutants was detected under the condition 25° C.±2° C./60% relative humidity ±5% relative humidity/5000±500 lux, samples were taken according to Table 6, and the same method in Example 2 was used to detect the stability of IL29 mutants.

[6] = Nebulization stability test
Method: A jet nebulizer of PARI LCD type and TurboBOY N nebulizer pump from Germany were used for nebulization tests. 2 ml of sample was nebulized, and aerosol was collected in the manner below according to FIG. 11; as for the collected sample, the purity of each test sample of IL29 mutants was detected according to the same method as in Example 2.2.1 by reversed-phase high performance liquid phase, thereby verifying the nebulization stability of each mutant.

[7] = Positive control group, 0.03 μM

## O=c1n(Cc2nc3ccccc3n2CCCCO)c2cnccc2n1C1CC1 [BMS-433771]
[1]; HBEC cell model, RSV RNA by RT-qPCR
  EC50: 213 nM
[1]; 10 nM
  Average inhibition rate (%): 31.65%
[1]; 50 nM
  Average inhibition rate (%): 29.30%
[1]; 250 nM
  Average inhibition rate (%): 85.31%
[1]; 1250 nM
  Average inhibition rate (%): 97.91%

## CCC(CC)COC(=O)[C@H](C)N[P@](=O)(OC[C@H]1O[C@@](C#N)(c2ccc3c(N)ncnn23)[C@H](O)[C@@H]1O)Oc1ccccc1 [Remdesivir]
Vero cells
  toxic effect on Vero cells: no obvious toxic effect
[2]
  CC50 at 48 h: > 50000 nM
Novel coronavirus; [7]
  Ct Value 1: 17.05
  Ct Value 2: 16.86
  Ct Value 3: 17.71
  Ct Value Mean: 17.21
Novel coronavirus; Positive control group, 0.1 μM
  Ct Value 1: 17.63
  Ct Value 2: 17.75
  Ct Value 3: 17.57
  Ct Value Mean: 17.65
Novel coronavirus; Positive control group, 0.3 μM
  Ct Value 1: 20.83
  Ct Value 2: 20.76
  Ct Value 3: 19.75
  Ct Value Mean: 20.45
Novel coronavirus; Positive control group, 1 μM
  Ct Value 1: 27.63
  Ct Value 2: 26.97
  Ct Value 3: 26.91
  Ct Value Mean: 27.17
Novel coronavirus; Positive control group, 3 μM
  Ct Value 1: 30.57
  Ct Value 2: 33.96
  Ct Value 3: 33.11
  Ct Value Mean: 32.55
Novel coronavirus; Positive control group, 10 μM
  Ct Value 1: 34.85
  Ct Value 2: 33.56
  Ct Value 3: 34.75
  Ct Value Mean: 34.39
Novel coronavirus; Vero, Positive control group, 0.03 μM, read-out: Average inhibition rate (%)
  inhibition at 0.03 µM: 17.5%
Novel coronavirus; Vero, Positive control group, 0.1 μM, read-out: Average inhibition rate (%)
  inhibition at 0.1 µM: 39.3%
Novel coronavirus; Vero, Positive control group, 0.3 μM, read-out: Average inhibition rate (%)
  inhibition at 0.3 µM: 91.3%
Novel coronavirus; Vero, Positive control group, 1 μM, read-out: Average inhibition rate (%)
  inhibition at 1 µM: 99.9%
Novel coronavirus; Vero, Positive control group, 3 μM, read-out: Average inhibition rate (%)
  inhibition at 3 µM: 100%
Novel coronavirus; Vero, Positive control group, 10 μM, read-out: Average inhibition rate (%)
  inhibition at 10 µM: 100%
Novel coronavirus; Vero, positive control group
  IC50: 120 nM
Novel coronavirus; positive control group, concentrations of 0.3 µM and above
  inhibition against the virus: ≥ 90%

B1: IL29 control: IL29 wild-type protein, amino acid sequence SEQ ID NO: 1 with an additional M amino acid at the N-terminal (protein)
chain: KPTTTGKGCHIGRFKSLSPQELASFKKARDALEESLKLKNWSCSSPVFPGNWDLRLLQVRERPVALEAELALTLKVLEAAAGPALEDVLDQPLHTLHHILSQLQACIQPQPTAGPRPRGRLHHWLHRLQEAPKKESAGCLEASVTFNLFRLLTRDLKYVADGNLCLRTSTHPEST
modifications: additional N-terminal Met
HEK293-ISRE-Luc cells
  EC50: 4.783 ng/mL
[3]; Day 7
  Main peak (%), reversed-phase HPLC purity: 56.70%
[3]; Day 14
  Main peak (%), reversed-phase HPLC purity: 34.46%
[3]; Point 0
  Main peak (%), reversed-phase HPLC purity: 85.82%
[3]
  Reduction on Day 14 as compared with Point 0 (%): 51.36%

B2: IL29DE (protein)
chain: MKPTTTGKGCHIGRFKSLSPQELASFKKARDALEESLKLKNWSCSSPVFPGNWDLRLLQVRERPVALEAELALTLKVLEAAAGPALEDVLDQPLHTLHHILSQLQACIQPQPTAGPRPRGRLHHWLHRLQEAPKKESAGCLEASVTFNLFRLLTRDLKYVAEGNLCLRTSTHPEST
HEK293-ISRE-Luc cells
  Relative biological activity (%): 282%
  EC50: 1.697 ng/mL
  EC50/biological activity as compared with IL29 control (in words): increased by nearly three times
[4]
  biological activity in 14 days at 50° C.: basically unchanged
[3]; Day 7
  Main peak (%), reversed-phase HPLC purity: 89.35%
[3]; Day 14
  Main peak (%), reversed-phase HPLC purity: 77.39%
[3]; Point 0
  Main peak (%), reversed-phase HPLC purity: 92.68%
[3]
  Reduction on Day 14 as compared with Point 0 (%): 15.29%

B3: IL29CS (protein)
chain: B2 chain with E162D, C166S
HEK293-ISRE-Luc cells
  EC50: 4.639 ng/mL
  EC50/biological activity as compared with IL29 control (in words): essentially no change
[5]; day 0
  Ion exchange purity (%): 97.00%
  Reversed-phase HPLC purity (%): 95.361%
[5]; day 5
  Ion exchange purity (%): 89.28%
  Reversed-phase HPLC purity (%): 90.756%
[5]; day 10
  Ion exchange purity (%): 77.14%
  Reversed-phase HPLC purity (%): 84.30%
[6]
  Reverse-phase purity After nebulization: 85.26%
[6]; jet nebulizer, 2 ml sample
  Reverse-phase purity Before nebulization: 96.65%
[6]; reverse-phase purity
  Difference between purity before and after nebulization: 10.39%
[3]; Day 7
  Main peak (%), reversed-phase HPLC purity: 64.66%
[3]; Day 14
  Main peak (%), reversed-phase HPLC purity: 46.20%
[3]; Point 0
  Main peak (%), reversed-phase HPLC purity: 97.03%
[3]
  Reduction on Day 14 as compared with Point 0 (%): 50.83%
